Consider three compounds from patent publication US11007273B2, “Prochelators as targeted prodrugs for prostate cancer and methods of making and using same” (Duke University, priority 2017, dated 2021).

The structures appear in SMILES notation. Like-named read-outs stand apart in the source and are kept apart here. Non-standard residues stand in square brackets, D forms with d. Residues, ends and D or L forms follow the SMILES beside them. *: point of attachment. X1 = CCN(CC)C(=S)SCc1ccc(N*)cc1 A value given as a limit tells only on which side of the number the result lay.

Data set [1] addresses PSA enzyme (Homo sapiens, UniProt P07288). In words: In vitro cleavage by PSA enzyme (LC trace). The conditions noted are these: 20 μg/mL of PSA. Format: biochemical. The protocol: (§1) It is hypothesized that the […] enzyme cleaves the peptide bond between Tyr and Ser. The cleaved products are shown in Scheme 2. When treated with 20 μg/mL of PSA, PSA-DTC was completely converted to products within 6 h (FIG. 6A).

Data set [2] is classed as in vitro ADME, human. How it is done: Conditioned media from prostate cancer cell line, LNCaP, was used to test the cleavage of prodrug. […] Since DTC is not observed in the UV or mass spectrometer, Cu(II) was added before recording mass spectra to visualize the release of DTC. Cu(DTC)2 complex was observed indicating the release of DTC. PSA-DTC was completely cleaved within 4 h.

In data set [3] the test system is aminopeptidases. In words: Further treatment with aminopeptidases (DTC release). Format: biochemical. The conditions noted are these: after PSA treatment. How it is done:
as §1

Data set [4] has as its system MCF-7 cells. In words: cells. In kind it is cell-based, human. How it is done: (§2) Antiproliferation assay: To determine the amount of Cu(II) required for cell studies a checkerboard assay was performed by varying the prodrug or drug concentration and Cu(II) concentration. 22RV1, LNCaP, PC3, MCF-7, and PWR-1E (5,000 cells/well) were seeded in 96-well plates with regular media (22Rv1, LNCaP, and PC-3 in RPMI with 10% FBS; MCF-7 in DMEM with 10% FBS; PWR-1E in Keratinocyte-SFM) and let adhere for 24 h. The following day, the media was replaced with serum free media and cells were treated as indicated for an additional 24 h or 72 h. Cell proliferation was measured using a fluorometric resazurin reduction method. 20 μL of 700 μM Resazurin (Sigma R7017) was added in each well and incubated at 37° C. for 2 h. Fluorescence at 580 nm was measured by exciting at 555 nm with a plate reader. Each experiment was performed in triplicate, and the experiments were repeated three times. Viability vs drug concentration plot from a representative experiment are shown with standard deviation from the experiment as error bar. The error bar in IC50 values represents standard deviation from three different experiments.

Data set [5] relates to PWR-1E cells. In words: cells. Format: cell-based, human. How it is done:
as §2

Data set [6] has as its system PC-3 cells. In words: cells. Format: cell-based, human. The protocol: as §2
Data set [7] concerns 22Rv1 cells. In words: cells. Format: cell-based, human. The protocol: as §2
Data set [8] has as its system LNCaP cells. In words: cells. In kind it is cell-based, human. How it is done:
as §2

The target of data set [9] is GGT (Homo sapiens, UniProt P19440). In words: Competition experiments vs. γE-pNA for GGT. In kind it is biochemical. The conditions noted are these: vs E-pNA; PBS, pH 7.4, 1 mM GlyGly. How it is done: Competition experiments vs. γE-pNA for GGT: To perform the inhibition study, a serial dilution of γE-pNA was performed ranging from 1 mM to 3 μM in PBS with 1 mM Gly-Gly (dilution factor=0.5; pH 7.4; 10% DMSO; 100 μL) using a clear, flat bottom 96 well plate. GGT binding molecules, as indicated, were added to separate sets of triplicate wells to reach a final concentration of 10 and 100 μM. Before the addition of enzyme, the plate was cooled to 4° C. for 15 min. To initiate the assay, 10 μL of 50 U/L GGT was added to each well and an initial absorbance scan was performed. Subsequent scans were performed every 10 min for ˜2 h. In between each scan, the plates were stored at 37° C. in a humidified incubator to reduce solvent evaporation. The experiment was repeated in triplicate.
GGT, sequence (P19440 whole entry, species assumed): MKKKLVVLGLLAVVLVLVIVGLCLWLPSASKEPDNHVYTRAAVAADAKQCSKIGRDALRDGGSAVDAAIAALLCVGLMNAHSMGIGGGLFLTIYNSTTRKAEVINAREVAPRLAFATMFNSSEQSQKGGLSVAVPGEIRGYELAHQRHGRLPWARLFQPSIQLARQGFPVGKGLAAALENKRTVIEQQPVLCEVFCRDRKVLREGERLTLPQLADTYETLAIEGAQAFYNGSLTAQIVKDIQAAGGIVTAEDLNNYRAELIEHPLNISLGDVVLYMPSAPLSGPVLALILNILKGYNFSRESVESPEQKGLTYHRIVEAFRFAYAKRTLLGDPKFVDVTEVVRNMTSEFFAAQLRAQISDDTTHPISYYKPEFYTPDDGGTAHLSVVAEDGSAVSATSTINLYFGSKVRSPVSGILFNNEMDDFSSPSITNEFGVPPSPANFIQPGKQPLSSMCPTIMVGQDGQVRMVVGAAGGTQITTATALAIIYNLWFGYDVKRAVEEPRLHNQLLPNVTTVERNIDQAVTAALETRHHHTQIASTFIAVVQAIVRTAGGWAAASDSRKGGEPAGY
To probe the reactivity of Glu-DTC in comparison to the enzyme's natural substrate GSH, competition experiments were conducted against the colorimetric substrate L-glutamic acid γ-(p-nitroanilide) [E-pNA]. The colorimetric assay involves monitoring p-nitroaniline release by absorbance at 405 nm upon reaction of the probe substrate E-pNA with GGT in the presence of an inhibiting substrate, either Glu-DTC (FIG. 15A) or GSH (FIG. 15C).

In data set [10] the test system is mCRPC patients. The following applies: phase 1, mCRPC patients; cited from earlier work.
The test system of data set [11] is 22Rv1, LNCaP, PC3, PWR-1E and MCF-7 cells. In words: Antiproliferation assay across all cell lines. The conditions noted are these: Homo sapiens, 72 h. In kind it is cell-based. How it is done: as §2

PSA enzyme, sequence (P07288 25-261): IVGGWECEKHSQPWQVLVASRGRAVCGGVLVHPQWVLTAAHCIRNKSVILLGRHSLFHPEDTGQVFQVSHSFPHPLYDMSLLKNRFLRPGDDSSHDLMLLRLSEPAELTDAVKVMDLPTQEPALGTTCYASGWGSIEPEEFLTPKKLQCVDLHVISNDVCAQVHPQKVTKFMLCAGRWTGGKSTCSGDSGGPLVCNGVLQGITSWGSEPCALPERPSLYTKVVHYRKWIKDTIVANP

`CCN(CC)C(=S)SCc1ccc(NC(=O)[C@@H](CC(C)C)NC(=O)[C@@H](CO)NC(=O)[C@@H](Cc2ccc(O)cc2)NC(=O)[C@@H](Cc2ccc(O)cc2)NC(=O)[C@@H](CO)NC(=O)[C@@H](CO)NC(=O)[C@H](N)CCCNC(=N)N)cc1` [PSA-DTC] (H-[dR][dS][dS][dY][dY][dS][dL]-X1): in data set [1], the “time to complete conversion to products” value is on record as ≤ 6 h. Also, the “time to complete cleavage” value in data set [2] is ≤ 4 h. The “release of DTC on treatment with aminopeptidases” value in data set [3] is given as “led to the release of DTC”. Besides, the IC50 came to 330 nM in data set [4]; 500 nM in data set [5]; 490 nM in data set [6]; 770 nM in data set [7]; 390 nM in data set [8]. Also, in [8] (LNCaP, varying Cu and prodrug, within 24 h (dPSA-DTC: even after 72 h)), the “antiproliferative activity in checker board assay with Cu” value is on record as “showed antiproliferative activity in the presence of Cu”.

`N[C@@H](CCC(=O)N[C@@H](CS)C(=O)NCC(=O)O)C(=O)O` [GSH, glutathione, reference compound] returned a Ki in [9] of 99000 ± 7000 nM.

For the compound `CCN(CC)C(=S)SSC(=S)N(CC)CC` [DSF, disulfiram, reference compound], in data set [10], the “patients who developed grade 3 adverse events” value is reported as 6 of the 12. Further, the “toxicity and efficacy outcome” value in data set [10] is recorded as “significant toxicity without improvement in efficacy”. The IC50 in data set [11] (1 μM CuSO4, read-out: IC50 range across all cell lines) is 40 to 150 nM; in data set [11] (DSF is a dimer of DTC, read-out: IC50 per monomer), 80 to 300 nM; in data set [4] (Homo sapiens, MCF7, MCF-7, 24 h, 1 μM CuSO4, read-out: IC50 with 1 μM CuSO4), 180 ± 10 nM; in data set [4] (Homo sapiens, MCF7, MCF-7, 72 h, 1 μM CuSO4, read-out: IC50 with 1 μM CuSO4), 47 ± 2 nM; in [4] (Homo sapiens, MCF7, Table 1, MCF-7, time and Cu not given, read-out: IC50 values) it was 130 nM; in data set [5] (Homo sapiens, PWR-1E, 24 h, PWR-1E, 24 h, 1 μM CuSO4, read-out: IC50 with 1 μM CuSO4), 80 ± 20 nM. The IC50 in data set [5] (Homo sapiens, PWR-1E, 72 h, PWR-1E, 72 h, 1 μM CuSO4, read-out: IC50 with 1 μM CuSO4) stood at 70 ± 10 nM; in [5] (Homo sapiens, PWR-1E, Table 1, PWR-1E, time and Cu not given, read-out: IC50 values), 72 nM; in data set [6] (Homo sapiens, PC-3, 24 h, 1 μM CuSO4, read-out: IC50 with 1 μM CuSO4), 70 ± 10 nM; in [6] (Homo sapiens, PC-3, 72 h, 1 μM CuSO4, read-out: IC50 with 1 μM CuSO4), 57 ± 10 nM; in [6] (Homo sapiens, Table 1, PC-3, time and Cu not given, read-out: IC50 values), 66 nM; in [7] (Homo sapiens, 22Rv1, 24 h, 1 μM CuSO4, read-out: IC50 with 1 μM CuSO4) it was 72 ± 10 nM. The IC50 in [7] (Homo sapiens, 22Rv1, 72 h, 1 μM CuSO4, read-out: IC50 with 1 μM CuSO4) came to 92 ± 5 nM; in data set [7] (Homo sapiens, Table 1, 22Rv1, time and Cu not given, read-out: IC50 values), 65 nM; in [8] (Homo sapiens, LNCaP, 24 h, LNCaP, 24 h, 1 μM CuSO4, read-out: IC50 with 1 μM CuSO4) it was 130 ± 20 nM; in data set [8] (Homo sapiens, LNCaP, 72 h, LNCaP, 72 h, 1 μM CuSO4, read-out: IC50 with 1 μM CuSO4), 140 ± 10 nM; in data set [8] (Homo sapiens, LNCaP, Table 1, LNCaP, time and Cu not given, read-out: IC50 values), 120 nM. Also, in data set [7] (checkerboard pilot studies in 22Rv1 cells), the “Cu(II) added to the growth medium required for antiproliferative activity” value was 300 nM.
